For assay [1], the system named is P. capsici zoospores. Kind of assay: Encystment assay with phage-displayed peptides. It counts as cell-based, Phytophthora capsici. Conditions: phage 2.5×10^9 virion; 20 minute incubation at room temperature. On the procedure: Following binding, the pathogen is observed for alterations in its development or ability to infect a host. […] The range of phage concentrations can vary, but generally ranges between 1 to 10×10^9 virion/μl. A negative control containing no phage is included in each screening. After an incubation period of usually about 20 minutes at room temperature, the number of zoospores encysted at each phage concentration is determined. Using this method it is possible to rationally select peptides of defined character and evaluate them for species- and life stage-specific induction of receptor-mediated functional responses, such a zoospore encystment. Peptides found to interfere with the development of a pathogen can be used to prevent or limit infection of a host with the pathogen.
Selected phage clones were isolated according to Smith and Scott (Methods in Enzymology, 217:228-257, 1993), and twice purified using polyethylene glycol as described above with the exception that phage were resuspended in distilled water instead of TBS. The virion concentration was calculated by measuring the absorbance at A269 (Smith and Scott, Methods in Enzymology, 217:228-257, 1993). Water droplets of approximately 20 μl containing about 400 freshly released zoospores were incubated with phage at two-fold serial dilutions so that they contained phage-bearing peptides at concentrations of either 1×10^10, 5×10^9, 2.5×10^9 or 1.25×10^9 virion/μl of droplet. A negative control received no phage and was used to monitor the amount of spontaneous encystment in the zoospore population. After a 20 minute incubation at room temperature, the number of encysted zoospores was counted using a microscope at 100× magnification. The virion concentration of phage was calculated according to Smith and Scott (Methods in Enzymology, 217:228-257, 1993).

For assay [2], the system named is P. capsici zoospores. Kind of assay: Binding of phage-displayed peptides to zoospores (eluted phage titered as TU). Further details: species or system Phytophthora capsici. Conditions: 5×10^10 TU phage with 200,000 zoospores, 30 minutes incubation. On the procedure: An aliquot of 10^11 transducing units (TU) from the f8-1 library (Petrinko et al., Protein Engineering, 9:797-801, 1996) was added to 10^6 freshly released P. capsici zoospores at room temperature in 4 ml of 50 mM LiCl and incubated for 30 minutes at room temperature with gentle agitation. The same procedure was used for the 188-4 library except in some cases P. sojae zoospores were used (Soj clones). The zoospores containing the bound phage were washed 10 times in 150 μl of 50 mM LiCl and centrifuged at 1000×g for 45 seconds to remove unbound phage. After the tenth wash, the bound phage were eluted with 200 μl of elution buffer (0.1 N HCl, glycine sufficient to bring pH to 2.2, 1 mg/ml bovine serum albumin). […] Selective enrichment of the zoospore-binding phage was monitored by calculating the percent yield after each round of selection as described in Smith and Scott (Methods in Enzymology, 217:228-257, 1993). This was done by calculating the total phage (expressed as transducing units) that was applied to the zoospores and measuring the total output of phage (as transducing units) that was recovered from the zoospores and expressing the result as a percentage. […]
Phage vector was included as a control treatment. […] Phage eluted from the zoospore population were titered in E. coli K91BluKan cells and expressed as total transducing units. […]

The next assay concerns U. appendiculatus. Kind of assay: Inhibition of germling (germinated uredospore) growth. It counts as cell-based, Uromyces appendiculatus. The following applies: phage-peptide clones, ~250 germinated spores with 3×10^12 at 20 C overnight; listed as clone 19. The text has this:
Part D entails the generation of additional Sub-libraries by use of further rounds of biopanning including rounds 2, 3 and 4. Part B is repeated three times: • 1. For biopanning round 2, 4.2×10^11 TU phages from the 2nd Sub-library are used to produce Sub-library 3; • 2. For biopanning round 3, 5.6×10^11 TU phages amplified from the 2nd biopanning are used to produce Sub-library 4; and • 3. For biopanning round 4, 5.1×10^11 TU phages amplified from the 3rd biopanning are used to produce Sub-library 5. Colonies from biopanning-round 4 are picked, sequenced, and tested for inhibition of germling growth.
Part E entails testing for inhibition of uredospore growth. Incubate 30 ul of germinated spores (˜250) with 3×10^12 at 20 C overnight. Assess fungal germ tube growth (i.e. germling growth) and compare with water and f88, i.e. phage only without any display peptide, as controls.

A further assay has as its system P. capsici cysts. Kind of assay: Binding of phage-displayed peptides to cysts (eluted phage titered as TU). Further details: species or system Phytophthora capsici. The following applies: 5×10^10 TU phage.

From patent US8067669B2, “Method for inducing resistance to fungal infection in transgenic plants using plant defense peptides” (The Curators Of The University Of Missouri, priority 2000, dated 2011) come the findings set out here.

Regarding “AVSPNVHDG (Random peptide insert) [Pc42]”, the “level of encystment of P. capsici zoospores” value in the assay with P. capsici zoospores [1] was “high levels of encystment”. Still for that read-out and setting: to “AAPDLQDAM (Random peptide insert) [Pc56]” belongs “low levels of encystment”; to “ADITDPMGA (Random peptide insert) [Pc64]”, “high levels of encystment”. For the sequence “AEHQNSAGP (Random peptide insert) [Pc45]”, the “phage eluted from zoospores” value with P. capsici zoospores [2] is recorded as “about 50,000 TU”. In addition, the “level of encystment of P. capsici zoospores” value in the assay with P. capsici zoospores [1] is given as “low levels of encystment”. “AGLTSPNDM (Random peptide insert) [Pc15B]”: in the assay on P. capsici zoospores [1], the “level of encystment of P. capsici zoospores” value was “low levels of encystment”. Regarding “NHVSTLKTRHRLIPF (Random peptide insert) [Pp 19]”, the “growth inhibition of U. appendiculatus (germlings)” value with U. appendiculatus is “inhibition”. Take “ADRPSMSPT (Random peptide insert) [Pc87]”: the “phage eluted from zoospores” value in the assay on P. capsici zoospores [2] is “More than 10^7 TU”. Also, the “level of encystment of P. capsici zoospores” value in the assay on P. capsici zoospores [1] is on record as “high levels of encystment”. Also, the “phage eluted from cysts” value with P. capsici cysts is recorded as “less than 10^4 TU”. For the sequence “ADPPRTVST (Random peptide insert) [Pc78]”, the “level of encystment of P. capsici zoospores” value in the assay with P. capsici zoospores [1] is “high levels of encystment”.
